In brackets after ≈: the same amount, converted by molar mass. Activity calls are given as the source filed them. The rule behind the calls is not given here.
Experiments:
Peritoneal macrophage [1] = assay: Antiinflammatory activity against LPS-stimulated mouse peritoneal macrophage assessed as TNF-alpha level at 2 uM treated for 3 hrs followed by ATP addition measured after 30 mins by ELISA method; assay type: functional, cell-based; conditions: time 3.5 hrs
Peritoneal macrophage [2] = assay: Antiinflammatory activity against LPS-stimulated mouse peritoneal macrophage assessed as IL-1beta level at 2 uM treated for 3 hrs followed by ATP addition measured after 30 mins by ELISA method relative to control; assay type: functional; conditions: time 3.5 hrs
Peritoneal macrophage [3] = assay: Antiinflammatory activity against LPS-stimulated mouse peritoneal macrophage assessed as IL-6 level at 2 uM treated for 3 hrs followed by ATP addition measured after 30 mins by ELISA method; assay type: functional, cell-based; conditions: time 3.5 hrs
Peritoneal macrophage [4] = assay: Cytotoxicity against mouse peritoneal macrophages at 4 uM incubated for 3.5 hrs by MTT assay; assay type: toxicity, cell-based
Mus musculus [5] = assay: Antiinflammatory activity in septic C57BL/6 mouse model assessed as decrease in LPS-induced IL-1beta release at 50 mg/kg, ip pretreated for 42 hrs followed by LPS injection measured after 6 hrs by ELISA method; assay type: functional, organism-based; conditions: time 48.0 hrs
Peritoneal macrophage [6] = assay: Antiinflammatory activity against LPS-stimulated mouse peritoneal macrophage assessed as inhibition of IL-1beta secretion at 1 uM treated for 3 hrs followed by ATP addition measured after 30 mins by ELISA method; assay type: functional, cell-based; conditions: time 3.5 hrs
Peritoneal macrophage [7] = assay: Effect on pro-caspase-1 expression in LPS-stimulated mouse peritoneal macrophage at 2 uM treated for 3 hrs followed by ATP addition measured after 30 mins by Western blot analysis; assay type: functional, cell-based; conditions: time 3.5 hrs
Peritoneal macrophage [8] = assay: Effect on pro-IL-1beta expression in ATP-induced LPS-primed mouse peritoneal macrophage cells at 2 uM treated for 3 hrs followed by ATP addition measured after 30 mins by Western blot analysis; assay type: functional, cell-based; conditions: time 3.5 hrs
[9] = target: NACHT, LRR and PYD domains-containing protein 3 (Mus musculus) (UniProt Q8R4B8); assay: Inhibition of NLRP3 inflammasome activation in LPS-stimulated mouse peritoneal macrophage assessed as inhibition of caspase-1 secretion at 2 uM treated for 3 hrs followed by ATP addition measured after 30 mins by Western blot analysis relative to control; assay type: cell-based; conditions: time 3.5 hrs
NACHT, LRR and PYD domains-containing protein 3 (Mus musculus), sequence (Q8R4B8 whole entry, the tested form may be a part): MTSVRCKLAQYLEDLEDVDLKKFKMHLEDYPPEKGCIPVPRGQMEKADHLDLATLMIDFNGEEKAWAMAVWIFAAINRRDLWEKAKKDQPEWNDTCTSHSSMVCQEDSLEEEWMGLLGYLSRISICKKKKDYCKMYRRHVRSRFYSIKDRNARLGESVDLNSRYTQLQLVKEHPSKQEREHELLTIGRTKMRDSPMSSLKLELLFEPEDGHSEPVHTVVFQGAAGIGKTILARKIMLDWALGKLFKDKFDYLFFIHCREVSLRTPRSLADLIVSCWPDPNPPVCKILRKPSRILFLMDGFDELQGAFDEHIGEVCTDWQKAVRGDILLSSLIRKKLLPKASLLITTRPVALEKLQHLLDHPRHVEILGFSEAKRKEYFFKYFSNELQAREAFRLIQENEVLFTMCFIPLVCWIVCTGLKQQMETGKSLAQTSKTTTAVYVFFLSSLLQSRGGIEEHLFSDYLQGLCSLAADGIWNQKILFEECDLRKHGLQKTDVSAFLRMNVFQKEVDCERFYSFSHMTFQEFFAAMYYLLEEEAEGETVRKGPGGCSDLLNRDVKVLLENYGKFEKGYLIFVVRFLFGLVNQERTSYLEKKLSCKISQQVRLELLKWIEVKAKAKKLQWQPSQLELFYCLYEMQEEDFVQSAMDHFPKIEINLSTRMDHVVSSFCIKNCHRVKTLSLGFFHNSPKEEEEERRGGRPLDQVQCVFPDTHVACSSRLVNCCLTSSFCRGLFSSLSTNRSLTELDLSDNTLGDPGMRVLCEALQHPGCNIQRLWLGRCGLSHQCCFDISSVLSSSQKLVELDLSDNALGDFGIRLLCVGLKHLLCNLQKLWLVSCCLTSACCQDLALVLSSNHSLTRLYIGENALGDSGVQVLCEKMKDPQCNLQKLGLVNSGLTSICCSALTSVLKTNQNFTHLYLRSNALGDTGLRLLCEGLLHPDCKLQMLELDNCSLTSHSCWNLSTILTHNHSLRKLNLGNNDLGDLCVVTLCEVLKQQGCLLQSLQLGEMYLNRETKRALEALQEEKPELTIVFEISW

Mus musculus [10] = assay: Antiinflammatory activity in septic C57BL/6 mouse model assessed as reduction in LPS-induced inflammatory infiltration at 50 mg/kg, ip pretreated for 42 hrs followed by LPS injection measured after 6 hrs by H and E staining based analysis; assay type: functional, organism-based; conditions: time 48.0 hrs
[11] = target: NACHT, LRR and PYD domains-containing protein 3 (Mus musculus) (UniProt Q8R4B8); assay: Inhibition of NLRP3 inflammasome activation in LPS-stimulated mouse peritoneal macrophage assessed as inhibition of IL-1beta secretion at 2 uM treated for 3 hrs followed by ATP addition measured after 30 mins by Western blot analysis relative to control; assay type: cell-based; conditions: time 3.5 hrs
[12] = target: NACHT, LRR and PYD domains-containing protein 3 (Mus musculus) (UniProt Q8R4B8); assay: Inhibition of NLRP3 inflammasome activation in […] LPS-primed mouse peritoneal macrophage cells assessed as inhibition of IL-1beta secretion at 2 uM treated for 3 hrs followed by nigericin addition measured after 30 mins by ELISA method; assay type: cell-based; conditions: time 3.5 hrs
Mus musculus [13] = assay: Antiinflammatory activity in septic C57BL/6 mouse model assessed as reduction in LPS-induced granulocyte count at 50 mg/kg, ip pretreated for 42 hrs followed by LPS injection measured after 6 hrs by H and E staining based analysis; assay type: functional, organism-based; conditions: time 48.0 hrs
Peritoneal macrophage [14] = assay: Effect on ASC expression in ATP-induced LPS-primed mouse peritoneal macrophage cells at 2 uM treated for 3 hrs followed by ATP addition measured after 30 mins by Western blot analysis; assay type: functional, cell-based; conditions: time 3.5 hrs
[15] = target: NACHT, LRR and PYD domains-containing protein 3 (Homo sapiens) (UniProt Q96P20); assay: Inhibition of NLRP3 (unknown origin) degradation at 10 uM incubated for 5 hrs followed by heat treatment for 3 mins by CETSA assay; conditions: time 5.03 hrs
NACHT, LRR and PYD domains-containing protein 3 (Homo sapiens), sequence (Q96P20 whole entry, the tested form may be a part): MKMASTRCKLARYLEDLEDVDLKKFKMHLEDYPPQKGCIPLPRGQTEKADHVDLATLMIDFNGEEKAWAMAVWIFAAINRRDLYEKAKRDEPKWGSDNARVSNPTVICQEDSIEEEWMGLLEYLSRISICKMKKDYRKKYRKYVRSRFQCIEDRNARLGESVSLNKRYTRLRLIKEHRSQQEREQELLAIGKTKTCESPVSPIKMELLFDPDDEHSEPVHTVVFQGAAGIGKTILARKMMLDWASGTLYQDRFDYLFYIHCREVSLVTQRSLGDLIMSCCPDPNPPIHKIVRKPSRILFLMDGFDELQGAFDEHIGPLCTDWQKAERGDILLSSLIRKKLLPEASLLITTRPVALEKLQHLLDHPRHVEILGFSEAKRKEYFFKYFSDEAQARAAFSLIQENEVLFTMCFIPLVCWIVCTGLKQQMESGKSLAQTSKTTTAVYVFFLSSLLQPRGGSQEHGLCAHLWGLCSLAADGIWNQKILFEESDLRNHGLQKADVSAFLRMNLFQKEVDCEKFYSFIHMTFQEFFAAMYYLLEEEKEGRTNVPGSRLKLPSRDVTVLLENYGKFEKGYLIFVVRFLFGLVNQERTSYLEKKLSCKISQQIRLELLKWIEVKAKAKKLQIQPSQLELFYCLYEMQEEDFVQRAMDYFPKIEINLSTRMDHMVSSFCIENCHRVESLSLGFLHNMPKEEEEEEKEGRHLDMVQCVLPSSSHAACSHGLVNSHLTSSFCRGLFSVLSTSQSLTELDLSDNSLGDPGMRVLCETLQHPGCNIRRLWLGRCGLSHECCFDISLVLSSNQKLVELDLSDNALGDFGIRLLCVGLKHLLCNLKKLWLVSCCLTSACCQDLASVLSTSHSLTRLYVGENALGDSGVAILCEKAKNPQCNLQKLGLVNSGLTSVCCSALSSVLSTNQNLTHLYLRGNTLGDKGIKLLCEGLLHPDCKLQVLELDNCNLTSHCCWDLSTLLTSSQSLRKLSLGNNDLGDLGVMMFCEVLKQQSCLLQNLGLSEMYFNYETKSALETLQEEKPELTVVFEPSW

[16] = target: NACHT, LRR and PYD domains-containing protein 3 (Mus musculus) (UniProt Q8R4B8); assay: Inhibition of NLRP3 inflammasome activation in ATP-induced LPS-primed mouse BMDM cells assessed as inhibition of IL-1beta secretion at 1 uM treated for 3 hrs followed by ATP addition measured after 30 mins by ELISA method; assay type: cell-based; conditions: time 3.5 hrs
[17] = target: NACHT, LRR and PYD domains-containing protein 3 (Mus musculus) (UniProt Q8R4B8); assay: Inhibition of NLRP3 inflammasome activation in […] LPS-primed mouse peritoneal macrophage cells assessed as inhibition of IL-1beta secretion at 2 uM treated for 3 hrs followed by MSU addition measured after 30 mins by ELISA method; assay type: cell-based; conditions: time 3.5 hrs
Mus musculus [18] = assay: Antiinflammatory activity in septic C57BL/6 mouse model assessed as reduction in LPS-induced alveolar wall thickening at 50 mg/kg, ip pretreated for 42 hrs followed by LPS injection measured after 6 hrs by H and E staining based analysis; assay type: functional, organism-based; conditions: time 48.0 hrs
Mus musculus [19] = assay: Antiinflammatory activity in septic C57BL/6 mouse model assessed as decrease in LPS-induced IL-6 release at 50 mg/kg, ip pretreated for 42 hrs followed by LPS injection measured after 6 hrs by ELISA method; assay type: functional, organism-based; conditions: time 48.0 hrs
Peritoneal macrophage [20] = assay: Effect on pro-caspase-1 expression in ATP-induced LPS-primed mouse peritoneal macrophage cells at 2 uM treated for 3 hrs followed by ATP addition measured after 30 mins by Western blot analysis; assay type: functional, cell-based; conditions: time 3.5 hrs
Peritoneal macrophage [21] = assay: Effect on NLRP3 expression in ATP-induced LPS-primed mouse peritoneal macrophage cells at 2 uM treated for 3 hrs followed by ATP addition measured after 30 mins by Western blot analysis; assay type: functional, cell-based; conditions: time 3.5 hrs
Peritoneal macrophage [22] = assay: Effect on pro-IL-1beta expression in LPS-stimulated mouse peritoneal macrophage at 2 uM treated for 3 hrs followed by ATP addition measured after 30 mins by Western blot analysis; assay type: functional, cell-based; conditions: time 3.5 hrs
[23] = Metabolic stability in mouse liver microsomes assessed as intrinsic clearance at 20 uM measured upto 120 mins in presence of NADPH by LC-MS/MS analysis; assay type: ADME, Microsome; conditions: read-out: CLH
[24] = Metabolic stability in human liver microsomes assessed as intrinsic clearance at 20 uM measured upto 120 mins in presence of NADPH by LC-MS/MS analysis; assay type: ADME, Microsome; conditions: read-out: CLH
Peritoneal macrophage [25] = assay: Antiinflammatory activity against LPS-stimulated mouse peritoneal macrophage assessed as TNF-alpha level at 2 uM treated for 3 hrs followed by ATP addition measured after 30 mins by ELISA method relative to control; assay type: functional; conditions: time 3.5 hrs
[26] = Metabolic stability in human liver microsomes assessed as half life at 20 uM measured upto 120 mins in presence of NADPH by LC-MS/MS analysis; assay type: ADME, Microsome
[27] = Metabolic stability in mouse liver microsomes assessed as half life at 20 uM measured upto 120 mins in presence of NADPH by LC-MS/MS analysis; assay type: ADME, Microsome
Peritoneal macrophage [28] = assay: Antiinflammatory activity against LPS-stimulated mouse peritoneal macrophage assessed as IL-1beta level at 2 uM treated for 3 hrs followed by ATP addition measured after 30 mins by ELISA method; assay type: functional, cell-based; conditions: time 3.5 hrs
Peritoneal macrophage [29] = assay: Antiinflammatory activity against LPS-stimulated mouse peritoneal macrophage assessed as IL-6 level at 2 uM treated for 3 hrs followed by ATP addition measured after 30 mins by ELISA method relative to control; assay type: functional; conditions: time 3.5 hrs
[30] = Aqueous solubility of compound incubated for 24 hrs by HPLC analysis; assay type: physicochemical; conditions: buffer
Peritoneal macrophage [31] = assay: Antiinflammatory activity against LPS-stimulated mouse peritoneal macrophage assessed as inhibition of IL-1beta secretion treated for 3 hrs followed by ATP addition measured after 30 mins by ELISA method; assay type: functional, cell-based
[32] = target: NACHT, LRR and PYD domains-containing protein 3 (Mus musculus, UniProt Q8R4B8); assay: Binding affinity to CMS sensor chip immobilized His-SUMO-tagged mouse NLRP3 expressed in Escherichia coli assessed as dissociation constant by SPR analysis
NACHT, LRR and PYD domains-containing protein 3, sequence (Q8R4B8 whole entry, the tested form may be a part): as the sequence (Q8R4B8 whole entry, the tested form may be a part) above

Cc1cccc2c3c(ccc12)-c1oc2c(c1C(=O)C3=O)CCN(CCN1CCCCC1)C2
Activity (Peritoneal macrophage [1]): inactive
Activity (Peritoneal macrophage [2]): 41%
Activity (Peritoneal macrophage [3]): inactive
Activity (Peritoneal macrophage [4]): Non-Toxic

Cc1cccc2c3c(ccc12)-c1oc2c(c1C(=O)C3=O)CCN(CCCN1CCOCC1)C2 [listing 1 of 2 here]
Activity (Mus musculus [5]): Active
inhibition (Peritoneal macrophage [6]): Active
Activity (Peritoneal macrophage [7]): inactive
Activity (Peritoneal macrophage [8]): inactive
inhibition [9]: 100%
Activity (Mus musculus [10]): Active
inhibition [11]: 100%
inhibition [12]: Active
Activity (Mus musculus [13]): Active
Activity (Peritoneal macrophage [14]): inactive
inhibition [15]: Active
inhibition [16]: Active
inhibition [17]: Active
Activity (Mus musculus [18]): Active
Activity (Mus musculus [19]): Active
Activity (Peritoneal macrophage [20]): inactive
Activity (Peritoneal macrophage [21]): inactive
Activity (Peritoneal macrophage [22]): inactive

Cc1cccc2c3c(ccc12)-c1oc2c(c1C(=O)C3=O)CCN(CCO)C2 [listing 1 of 2 here]
Activity (Mus musculus [5]): Active
inhibition (Peritoneal macrophage [6]): Active
Activity (Peritoneal macrophage [7]): inactive
Activity (Peritoneal macrophage [8]): inactive
inhibition [9]: 100%
Activity (Mus musculus [10]): Active
inhibition [11]: 100%
inhibition [12]: Active
Activity (Mus musculus [13]): Active
Activity (Peritoneal macrophage [14]): inactive
inhibition [16]: Active
inhibition [17]: Active
Activity (Mus musculus [18]): Active
Activity (Mus musculus [19]): Active
Activity (Peritoneal macrophage [20]): inactive
Activity (Peritoneal macrophage [21]): inactive
Activity (Peritoneal macrophage [3]): inactive
Activity (Peritoneal macrophage [22]): inactive

Cc1coc2c1C(=O)C(=O)c1c-2ccc2c(C)cccc12 [TANSHINONE I]
microsomal CLint at 20 µM [23]: 65.6 µL/min/mg
microsomal CLint at 20 µM [24]: 290 µL/min/mg
Activity (Peritoneal macrophage [25]): 55%
half-life at 20 µM [26]: 0.0795 h
Activity (Peritoneal macrophage [2]): 69%
half-life at 20 µM [27]: 0.352 h
Activity (Peritoneal macrophage [3]): inactive
Activity (Peritoneal macrophage [4]): Non-Toxic

Cc1coc2c1C(=O)C(=O)c1c-2ccc2c1CCCC2(C)C [TANSHINONE IIA]
Activity (Peritoneal macrophage [28]): inactive
Activity (Peritoneal macrophage [25]): 19%
Activity (Peritoneal macrophage [29]): 16%
Activity (Peritoneal macrophage [4]): Non-Toxic

Cc1cccc2c3c(ccc12)-c1oc2c(c1C(=O)C3=O)CCN(CCN1CCCC1)C2
Activity (Peritoneal macrophage [1]): inactive
Activity (Peritoneal macrophage [2]): 73%
Activity (Peritoneal macrophage [3]): inactive
Activity (Peritoneal macrophage [4]): Non-Toxic

CCN1CCc2c(oc3c2C(=O)C(=O)c2c-3ccc3c(C)cccc23)C1
Activity (Peritoneal macrophage [1]): inactive
Activity (Peritoneal macrophage [2]): 67%
Activity (Peritoneal macrophage [3]): inactive
Activity (Peritoneal macrophage [4]): Non-Toxic

Cc1cccc2c3c(ccc12)-c1oc2c(c1C(=O)C3=O)CCN([C@H](CO)CCCO)C2 [listing 1 of 2 here]
Activity (Mus musculus [5]): Active
inhibition (Peritoneal macrophage [6]): Active
Activity (Peritoneal macrophage [7]): inactive
Activity (Peritoneal macrophage [8]): inactive
inhibition [9]: 100%
Activity (Mus musculus [10]): Active
inhibition [11]: 100%
inhibition [12]: Active
Activity (Mus musculus [13]): Active
Activity (Peritoneal macrophage [14]): inactive
inhibition [16]: Active
inhibition [17]: Active
Activity (Mus musculus [18]): Active
Activity (Mus musculus [19]): Active
Activity (Peritoneal macrophage [20]): inactive
Activity (Peritoneal macrophage [21]): inactive
Activity (Peritoneal macrophage [22]): inactive

Cc1cccc2c3c(ccc12)-c1oc2c(c1C(=O)C3=O)CCN([C@H](CO)CCCO)C2 [listing 2 of 2 here]
microsomal CLint at 20 µM [23]: 3.8 µL/min/mg
microsomal CLint at 20 µM [24]: 6.2 µL/min/mg
Activity (Peritoneal macrophage [25]): 41%
Activity (Peritoneal macrophage [29]): 10%
half-life at 20 µM [26]: 3.73 h
solubility [30]: 0.45 µg/mL (≈ 1.07 µM)
Activity (Peritoneal macrophage [2]): 99%
IC50 (Peritoneal macrophage [31]): 0.065 µM
half-life at 20 µM [27]: 6.08 h
Activity (Peritoneal macrophage [4]): Non-Toxic

Cc1cccc2c3c(ccc12)-c1oc2c(c1C(=O)C3=O)CCN(CCCN1CCOCC1)C2 [listing 2 of 2 here]
microsomal CLint at 20 µM [23]: 7.6 µL/min/mg
microsomal CLint at 20 µM [24]: 1.6 µL/min/mg
Activity (Peritoneal macrophage [25]): 41%
half-life at 20 µM [26]: 14.4 h
solubility [30]: 0.03 µg/mL (≈ 0.0675 µM)
Activity (Peritoneal macrophage [2]): 97%
Kd [32]: 5.87 µM
IC50 (Peritoneal macrophage [31]): 0.131 µM
half-life at 20 µM [27]: 3.04 h
Activity (Peritoneal macrophage [4]): Non-Toxic

Cc1cccc2c3c(ccc12)-c1oc2c(c1C(=O)C3=O)CCN(CCO)C2 [listing 2 of 2 here]
microsomal CLint at 20 µM [23]: 7.64 µL/min/mg
microsomal CLint at 20 µM [24]: 2 µL/min/mg
Activity (Peritoneal macrophage [25]): 40%
Activity (Peritoneal macrophage [29]): 7%
half-life at 20 µM [26]: 11.6 h
solubility [30]: 0.34 µg/mL (≈ 0.941 µM)
Activity (Peritoneal macrophage [2]): 96%
IC50 (Peritoneal macrophage [31]): 0.114 µM
half-life at 20 µM [27]: 3.03 h
Activity (Peritoneal macrophage [4]): Non-Toxic

From ChEMBL document CHEMBL5380810, “Scaffold Hybrid of the Natural Product Tanshinone I with Piperidine for the Discovery of a Potent NLRP3 Inflammasome Inhibitor” (J Med Chem, 2023)
